Target: GCN2 (Homo sapiens, UniProt Q9P2K8)
Assay: GCN2 enzymatic endpoint assay: phosphorylation of GFP-eIF2α measured by TR-FRET (Lanthascreen)
Assay type: biochemical
Details: GCN2 biochemical IC50; 4 nM GCN2, 2 μM ATP, 80 nM GFP-eIF2α, 90 min RT; read-out: GCN2 activity
Experimental: The Enzymatic assay was run as an endpoint assay to quantify the activity of the serine/threonine GCN2 kinase by way of measuring phosphorylation of its natural substrate, eiF2α.
The enzymatic reaction was initiated by incubating with 2 μM ATP and 80 nM of GFP labeled eiF2a substrate at room temperature and then stopped after 90 minutes with EDTA. The amount of phosphorylated eIF2α is determined by TR-FRET (Lanthascreen). A terbium labeled antibody associates with the phosphorylated substrate resulting in an increased TR-FRET value. Activity was calculated as the ratio of the acceptor (fluorescein) signal at 520 nm wavelength to the donor (terbium) signal 495 nm. The amount of antibody that is bound to the tracer is directly proportional to the amount of phosphorylated substrate present, and in this manner, kinase activity can be detected and measured by an increase in the TR-FRET value.
Compound addition by D300
5 μL enzyme solution in assay buffer
5 μL substrate/ATP mixture in assay buffer
5 μL stop/detection mix in antibody dilution buffer

GCN2, sequence (Q9P2K8 whole entry): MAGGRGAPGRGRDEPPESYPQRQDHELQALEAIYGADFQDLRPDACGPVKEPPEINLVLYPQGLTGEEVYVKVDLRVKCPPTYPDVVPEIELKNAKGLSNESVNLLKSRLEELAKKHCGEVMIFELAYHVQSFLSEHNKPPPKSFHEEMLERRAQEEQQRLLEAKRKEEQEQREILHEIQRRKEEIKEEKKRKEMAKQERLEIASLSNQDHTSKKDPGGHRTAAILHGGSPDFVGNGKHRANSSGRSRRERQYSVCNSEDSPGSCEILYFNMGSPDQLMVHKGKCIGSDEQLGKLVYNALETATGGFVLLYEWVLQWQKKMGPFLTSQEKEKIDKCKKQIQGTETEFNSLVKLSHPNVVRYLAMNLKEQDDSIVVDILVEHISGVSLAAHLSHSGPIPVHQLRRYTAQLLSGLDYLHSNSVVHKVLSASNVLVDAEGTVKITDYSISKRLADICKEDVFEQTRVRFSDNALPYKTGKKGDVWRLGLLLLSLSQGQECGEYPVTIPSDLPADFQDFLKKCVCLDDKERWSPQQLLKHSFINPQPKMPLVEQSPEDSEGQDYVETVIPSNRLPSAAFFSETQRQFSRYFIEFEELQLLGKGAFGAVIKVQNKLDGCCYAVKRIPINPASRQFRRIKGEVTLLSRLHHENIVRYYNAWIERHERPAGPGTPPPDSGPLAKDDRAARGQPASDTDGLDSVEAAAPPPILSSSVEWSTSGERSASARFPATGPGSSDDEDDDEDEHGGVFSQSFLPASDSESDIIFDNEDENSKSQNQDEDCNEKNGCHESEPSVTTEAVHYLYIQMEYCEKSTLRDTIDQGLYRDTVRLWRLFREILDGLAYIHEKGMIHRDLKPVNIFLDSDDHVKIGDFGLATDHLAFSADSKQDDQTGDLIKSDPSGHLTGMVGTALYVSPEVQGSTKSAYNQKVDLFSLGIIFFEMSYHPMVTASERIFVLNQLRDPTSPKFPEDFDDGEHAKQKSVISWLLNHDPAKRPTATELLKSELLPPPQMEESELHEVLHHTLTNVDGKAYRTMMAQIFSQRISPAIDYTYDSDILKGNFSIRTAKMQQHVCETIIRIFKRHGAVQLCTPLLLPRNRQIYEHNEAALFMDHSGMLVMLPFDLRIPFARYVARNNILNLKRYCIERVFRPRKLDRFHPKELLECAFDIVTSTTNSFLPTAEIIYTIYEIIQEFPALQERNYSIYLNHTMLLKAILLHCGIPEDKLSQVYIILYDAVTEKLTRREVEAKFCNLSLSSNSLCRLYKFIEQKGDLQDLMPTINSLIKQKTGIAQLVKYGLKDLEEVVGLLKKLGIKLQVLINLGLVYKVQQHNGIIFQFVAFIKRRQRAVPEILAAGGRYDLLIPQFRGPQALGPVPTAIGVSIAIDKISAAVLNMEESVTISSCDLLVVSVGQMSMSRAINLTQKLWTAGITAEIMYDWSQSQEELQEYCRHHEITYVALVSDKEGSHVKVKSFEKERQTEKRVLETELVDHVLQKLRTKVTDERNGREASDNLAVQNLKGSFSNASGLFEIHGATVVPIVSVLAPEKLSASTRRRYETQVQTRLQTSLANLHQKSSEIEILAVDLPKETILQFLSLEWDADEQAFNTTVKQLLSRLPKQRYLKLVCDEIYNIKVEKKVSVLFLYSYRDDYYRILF

First: CNC(=O)[C@]1(C)CC[C@@H](Nc2ncc3c(Br)nn(-c4cc(C#N)c5ncccc5c4)c3n2)C1 (single isomer, unassigned) [Example 23]
Second: CNC(=O)[C@]1(C)CC[C@@H](Nc2ncc3c(Br)nn(-c4ccc(-c5nnc(C(C)(C)N)o5)cc4)c3n2)C1 [Example 47, (1R,3R)-3-((1-(4-(5-(2-aminopropan-2-yl)-1,3,4-oxadiazol-2-yl)phenyl)-3-bromo-1H-pyrazolo[3,4-d]pyrimidin-6-yl)amino)-N,1-dimethylcyclopentane-1-carboxamide; 2,2,2-trifluoroacetic acid]
The IC50 of the first is lower: under 25 nM for the first, 25 to 200 nM for the second. The first is the more potent here.

`COCCNC(=O)[C@@H]1CC[C@@H](Nc2ncc3c(I)nn(-c4ccc5ncccc5c4)c3n2)C1` [Example 13, (1R,3R)-3-((3-iodo-1-(quinolin-6-yl)-1H-pyrazolo[3,4-d]pyrimidin-6-yl)amino)-N-(2-methoxyethyl)cyclopentane-1-carboxamide] and `Cc1nnc(-c2ccc(-n3nc(Br)c4cnc(N[C@@H]5CC[C@@](C)(O)C5)nc43)cc2C#N)s1` [Example 67, 5-(3-bromo-6-(((1R,3R)-3-hydroxy-3-methylcyclopentyl)amino)-1H-pyrazolo[3,4-d]pyrimidin-1-yl)-2-(5-methyl-1,3,4-thiadiazol-2-yl)benzonitrile] cannot be ordered by IC50: under 25 nM for the first, under 25 nM for the second.

Same assay, conditions: tested as described in Example 77; compound and/or hydrochloride, dihydrochloride or trifluoroacetic acid salt; read-out: IC 50 Activity

`CNC(=O)C1(CCC#N)CC[C@@H](Nc2ncc3c(Br)nn(-c4ccc(-c5nnc(C)s5)cc4)c3n2)C1` (stereo partly drawn) [(3R)-3-[[3-bromo-1-[4-(5-methyl-1,3,4-thiadiazol-2-yl)phenyl]pyrazolo[3,4-d]pyrimidin-6-yl]amino]-1-(2-cyanoethyl)-N-methyl-cyclopentanecarboxamide] and `CNC(=O)[C@]1(C)CC[C@@H](Nc2ncc3c(Br)nn(-c4ccc(-c5nnc(CN)s5)cc4)c3n2)C1` [(1R,3R)-3-[[1-[4-[5-(aminomethyl)-1,3,4-thiadiazol-2-yl]phenyl]-3-bromo-pyrazolo [3,4-d]pyrimidin-6-yl]amino]-N,1-dimethyl-cyclopentanecarboxamide] fall in the same range of IC50: 25 to 200 nM for the first, 25 to 200 nM for the second.

`CNC(=O)[C@]1(C)CC[C@@H](Nc2ncc3c(Br)nn(-c4cnc5c(c4)OCC(=O)N5C)c3n2)C1` [(1R,3R)-3-[[3-bromo-1-(4-methyl-3-oxo-pyrido[3,2-b][1,4]oxazin-7-yl)pyrazolo [3,4-d]pyrimidin-6-yl]amino]-N,1-dimethyl-cyclopentanecarboxamide] and `CNC(=O)[C@]1(C)CC[C@@H](Nc2ncc3c(Br)nn(-c4cc(Cl)cc(C5CN(C)C(=O)CO5)c4)c3n2)C1` (stereo partly drawn) [(1R,3R)-3-[[3-bromo-1-[3-chloro-5-(4-methyl-5-oxo-morpholin-2-yl)phenyl]pyrazolo[3,4-d]pyrimidin-6-yl]amino]-N,1-dimethyl-cyclopentane-carboxamide] fall in the same range of IC50: 25 to 200 nM for the first, 25 to 200 nM for the second.

First: CNC(=O)[C@]1(C)CC[C@@H](Nc2ncc3c(Br)nn(-c4ccc5nc(N6CCNCC6)ncc5c4)c3n2)C1
Second: CNC(=O)[C@]1(C)CC[C@@H](Nc2ncc3c(Br)nn(-c4ccc5nc(N6CCCC6)ncc5c4)c3n2)C1
The IC50 of the first is lower: under 25 nM for the first, 25 to 200 nM for the second. The first is the more potent here.

`CNC(=O)C1(C)CC[C@@H](Nc2ncc3c(Br)nn(-c4ccc(Cn5ccnc5)cc4)c3n2)C1` (stereo partly drawn) [(3R)-3-[[3-bromo-1-[4-(imidazol-1-ylmethyl)phenyl]pyrazolo[3,4-d]pyrimidin-6-yl]amino]-N,1-dimethyl-cyclopentanecarboxamide] and `CNC(=O)[C@]1(C)CC[C@@H](Nc2ncc3c(Br)nn(-c4ccc(-n5cccn5)cc4)c3n2)C1` [(1R,3R)-3-[[3-bromo-1-(4-pyrazol-1-ylphenyl)pyrazolo[3,4-d]pyrimidin-6-yl]amino]-N,1-dimethyl-cyclopentane-carboxamide] fall in the same range of IC50: 25 to 200 nM for the first, 25 to 200 nM for the second.

First: CC(C)(NC(=O)[C@@H]1CC[C@@H](Nc2ncc3c(Br)nn(-c4cc(C#N)c5ncccc5c4)c3n2)C1)C(N)=O
Second: CNC(=O)[C@@H]1CC[C@@H](Nc2ncc3c(Br)nn(-c4cc(C(F)F)c5ncccc5c4)c3n2)C1 [(1R,3R)-3-((3-bromo-1-(8-(difluoromethyl)quinolin-6-yl)-1H-pyrazolo[3,4-d]pyrimidin-6-yl)amino)-N-methylcyclopentane-1-carboxamide]
The IC50 of the first is lower: under 25 nM for the first, 25 to 200 nM for the second.

`CNC(=O)N1CC[C@@H](Nc2ncc3c(Br)nn(-c4ccc(-c5nnc(C)s5)cc4)c3n2)C1` [(3R)-3-[[3-bromo-1-[4-(5-methyl-1,3,4-thiadiazol-2-yl)phenyl]pyrazolo [3,4-d]pyrimidin-6-yl]amino]-N-methyl-pyrrolidine-1-carboxamide] and `CCc1cc(-n2nc(Br)c3cnc(N[C@@H]4CC[C@@](C)(C(=O)NC)C4)nc32)ccc1-c1nnc(C)s1` fall in the same range of IC50: 25 to 200 nM for the first, 25 to 200 nM for the second.

`CNC(=O)[C@@H]1CC[C@@H](Nc2ncc3c(Br)nn(-c4ccc5ncc(Cl)cc5c4)c3n2)C1` [(1R,3R)-3-[[3-bromo-1-(3-chloro-6-quinolyl)pyrazolo[3,4-d]pyrimidin-6-yl]amino]-N-methyl-cyclopentanecarboxamide] and `CNC(=O)[C@@H]1CC[C@@H](Nc2ncc3c(Br)nn(-c4ccc5ncccc5c4)c3n2)C1` [(1R,3R)-3-[[3-bromo-1-(6-quinolyl)pyrazolo[3,4-d]pyrimidin-6-yl]amino]-N-methyl-cyclopentanecarboxamide] fall in the same range of IC50: 25 to 200 nM for the first, 25 to 200 nM for the second.

`Cc1nnc(-c2ccc(-n3nc(Br)c4cnc(N[C@@H]5CC[C@]6(CCNC6=O)C5)nc43)cc2CCC#N)s1` and `CNS(=O)(=O)C1CC[C@@H](Nc2ncc3c(Br)nn(-c4ccc(-c5nnc(C)s5)c(CCC#N)c4)c3n2)C1` (stereo partly drawn) [(3R)-3-[[3-bromo-1-[3-(2-cyanoethyl)-4-(5-methyl-1,3,4-thiadiazol-2-yl)phenyl]pyrazolo[3,4-d]pyrimidin-6-yl]amino]-N-methyl-cyclopentanesulfonamide] fall in the same range of IC50: 25 to 200 nM for the first, 25 to 200 nM for the second.

`CNC(=O)[C@]1(C)CC[C@@H](Nc2ncc3c(Br)nn(-c4cc(CNCCC#N)c5ncccc5c4)c3n2)C1` [(1R,3R)-3-[[3-bromo-1-[8-[(2-cyanoethyl-amino)methyl]-6-quinolyl]pyrazolo[3,4-d]pyrimidin-6-yl]amino]-N,1-dimethyl-cyclopentanecarboxamide] and `CNC(=O)[C@]1(C)CC[C@@H](Nc2ncc3c(Br)nn(-c4ccc5ncc(CNCCC#N)cc5c4)c3n2)C1` [(1R,3R)-3-[[3-bromo-1-[3-[(2-cyanoethyl-amino)methyl]-6-quinolyl]pyrazolo[3,4-d]pyrimidin-6-yl]amino]-N,1-dimethyl-cyclo-pentanecarboxamide] fall in the same range of IC50: 25 to 200 nM for the first, 25 to 200 nM for the second.

First: CS(=O)(=O)N1CC[C@@H](Nc2ncc3c(Br)nn(-c4ccc5ncccc5c4)c3n2)C1 [(R)-3-bromo-N-(1-(methylsulfonyl)pyrrolidin-3-yl)-1-(quinolin-6-yl)-1H-pyrazolo[3,4-d] pyrimidin-6-amine]
Second: O=C(O)[C@@H]1CCC[C@@H](Nc2ncc3c(Br)nn(-c4ccc5ncccc5c4)c3n2)C1 [(1R,3R)-3-((3-bromo-1-(quinolin-6-yl)-1H-pyrazolo[3,4-d]pyrimidin-6-yl)amino) cyclohexane-1-carboxylic acid]
The IC50 of the first is lower: 200 to 500 nM for the first, 500 to 1000 nM for the second. The first is the more potent here.

`CNC(=O)[C@]1(C)CC[C@@H](Nc2ncc3c(Br)nn(-c4cc([C@@H](C)CO)c5ncccc5c4)c3n2)C1` [(1R,3R)-3-[[3-bromo-1-[8-[(1R)-2-hydroxy-1-methyl-ethyl]-6-quinolyl]pyrazolo[3,4-d]pyrimidin-6-yl]amino]-N,1-dimethyl-cyclo-pentanecarboxamide] and `CN(CC1(C)COC1)C(=O)C1(C)CC[C@@H](Nc2ncc3c(Br)nn(-c4cc(F)c5ncccc5c4)c3n2)C1` (some centres unmarked) cannot be ordered by IC50: under 25 nM for the first, under 25 nM for the second.

Compared with `O=C(NC[C@@H]1COCCN1)[C@@H]1CC[C@@H](Nc2ncc3c(Br)nn(-c4ccc5ncccc5c4)c3n2)C1` [(1R,3R)-3-((3-bromo-1-(quinolin-6-yl)-1H-pyrazolo[3,4-d]pyrimidin-6-yl)amino)-N-(((R)-morpholin-3-yl)methyl)cyclopentane-1-carboxamide], `COC[C@H](C)NC(=O)[C@@H]1CCC[C@@H](Nc2ncc3c(Br)nn(-c4ccc5ncccc5c4)c3n2)C1` [(1R,3R)-3-((3-bromo-1-(quinolin-6-yl)-1H-pyrazolo[3,4-d]pyrimidin-6-yl)amino)-N-((S)-1-methoxypropan-2-yl)cyclohexane-1-carboxamide] is higher in IC50: 200 to 500 nM for the first, 500 to 1000 nM for the second. The first is the more potent here.

`CNC(=O)[C@]1(C)CC[C@@H](Nc2ncc3c(Br)nn(-c4ccc(C#N)c(OCC(C)O)c4)c3n2)C1` (stereo partly drawn) [(1R,3R)-3-[[3-bromo-1-[4-cyano-3-(2-hydroxypropoxy)phenyl]pyrazolo [3,4-d]pyrimidin-6-yl]amino]-N,1-dimethyl-cyclopentanecarboxamide] and `CNC(=O)[C@]1(C)CC[C@@H](Nc2ncc3c(Br)nn(-c4cccc(NC(=O)c5cncnc5)c4)c3n2)C1` [N-[3-[3-bromo-6-[[(1R,3R)-3-methyl-3-(methylcarbamoyl)cyclopentyl]amino]pyrazolo[3,4-d]pyrimidin-1-yl]phenyl] pyrimidine-5-carboxamide] fall in the same range of IC50: 25 to 200 nM for the first, 25 to 200 nM for the second.

`CNC(=O)C1CCN(C(=O)[C@@H]2CC[C@@H](Nc3ncc4c(Br)nn(-c5cc(F)c6ncccc6c5)c4n3)C2)C1` (mixture of isomers) and `CNC(=O)[C@]1(C)CC[C@@H](Nc2ncc3c(Br)nn(-c4ccc(-c5nnc(C)s5)c(CC(N)C(F)(F)F)c4)c3n2)C1` (stereo partly drawn) [(1R,3R)-3-[[1-[3-(2-amino-3,3,3-trifluoro-propyl)-4-(5-methyl-1,3,4-thiadiazol-2-yl)phenyl]-3-bromo-pyrazolo[3,4-d]pyrimidin-6-yl]amino]-N,1-dimethyl-cyclopentane-carboxamide] fall in the same range of IC50: 25 to 200 nM for the first, 25 to 200 nM for the second.
